Experimental data as given in patent US8436007B2, “Inhibitors of protein kinases” (Ingenium Pharmaceuticals GmbH, priority 2007, dated 2013).
“Also recorded” adds a separate entry of the source.

What was measured:
[1] = system: IL6 expression in LPS induced THP-1 macrophages; experiment: In vitro THP-1 assay: IL6 expression in LPS-induced THP-1 macrophages (ELISA of supernatant); assay type: cell-based, human; conditions: differentiated THP-1 cells, 60 min pre-incubation with compound (0.5 to 5 μM), 100 ng/ml LPS for 4-48 h, triplicates
Method: (§1) The human THP-1 cell line can be utilized as an in vitro model of cytokine expression as mediated by Lipopolysaccharide (LPS) or Tumor Necrosis Factorα [TNFα]. Monocytic THP-1 cells (ATCC; TIB-202) can be differentiated into macrophage-like cells expressing pro-inflammatory cytokines like TNFα, IL6 and IL1β upon induction with LPS or by TNFα (autocrine induction) itself. THP-1 cells are grown in modified RPMI-1640 medium (ATCC, Cat. No. 30-2001) supplemented with 10% FCS and 1% Pen/Strep. For cytokine inhibition assays, cells are seeded at a density of 5×10^5 cells/ml into 6-well plates in standard growth medium supplemented with 100 ng/ml PMA (Sigma, P1585) to induce differentiation into macrophage-like cells. After 24 hours, the medium is replaced with standard growth medium (without PMA) and the cells are incubated for another 48 hours to complete differentiation. After 72 h of differentiation, the medium is replaced with serum free growth medium, and CDK-inhibiting compounds as well as reference compounds such as positive and negative controls, each dissolved in DMSO are added at concentrations ranging from 0.5 to 5 μM (final concentration of DMSO in the well is 0.1%). Cells are incubated for 60 min with compounds prior to stimulation with 100 ng/ml LPS (Sigma, L2630) for another 4-48 hours. Supernatants are collected and assayed immediately for cytokine expression, e.g. for TNFα, IL-6 and IL-1b using commercially available sandwich ELISA assays (eBioscience, Cat. No 88-7346, 88-7066, 88-7010) or kept frozen at […] until evaluation. Concentrations of TNFα, IL6 and IL1β within the cell culture supernatants are measured by using commercial ELISA Kits (eBioscience) according to the manufacturers' instructions. CDK-inhibitory compounds #1, 5, 6, 8, and 9 were administered at to differentiated THP-1 cells in triplicates as described above (see section 2.). After 60 min of pre-incubation with test or reference compound (SB203580, a p38 inhibitor and BMS345541, an IKK-inhibitor) alone, cells were stimulated with LPS. After incubation for 4-48 h, supernatants were collected and ELISA based determinations of cytokine supernatant concentrations were performed as described in section 3, supra.

[2] = system: TNFα expression in LPS induced THP-1 macrophages; experiment: In vitro THP-1 assay: TNFα expression in LPS-induced THP-1 macrophages (ELISA of supernatant); assay type: cell-based, human; conditions: differentiated THP-1 cells, 60 min pre-incubation with compound (0.5 to 5 μM), 100 ng/ml LPS for 4-48 h, triplicates
Method: as §1

| SMILES | inhibition of IL6 protein concentration in the cell supernatant compared to vehicle (DMSO) [1] | inhibition of TNFα expression / protein concentration in the cell supernatant compared to vehicle (DMSO) [2] |
| --- | --- | --- |
| COc1ccccc1-c1ccnc(Nc2cccc(CS(N)(=O)=O)c2)n1 [Compound 1, {3-[4-(2-Methoxy-phenyl)-pyrimidin-2-ylamino]-phenyl}-methanesulfonamide] | significant inhibitory effect | significant inhibitory effect; also recorded: significant inhibition |
| COc1cc(F)ccc1-c1ccnc(Nc2cccc(CS(N)(=O)=O)c2)n1 [Compound 5, {3-[4-(4-Fluoro-2-methoxy-phenyl)-pyrimidin-2-ylamino]-phenyl}-methanesulfonamide] | significant inhibitory effect | significant inhibitory effect; also recorded: significant inhibition |
| COc1ccccc1-c1ccnc(Nc2cccc(CS(=O)(=O)NC3CC3)c2)n1 [Compound 6, N-Cyclopropyl-C-{3-[4-(2-methoxy-phenyl)-pyrimidin-2-ylamino]-phenyl}-methanesulfonamide] | significant inhibitory effect | significant inhibitory effect; also recorded: significant inhibition |
| COc1ccccc1-c1ccnc(Nc2cccc(CS(=O)(=O)N(C)CCO)c2)n1 [Compound 8, N-(2-Hydroxy-ethyl)-C-{3-[4-(2-methoxy-phenyl)-pyrimidin-2-ylamino]-phenyl}-N-methyl-methanesulfonamide] | significant inhibitory effect | significant inhibitory effect; also recorded: significant inhibition |
| COc1ccccc1-c1ccnc(Nc2cccc(CS(=O)(=O)CCO)c2)n1 [Compound 9, 2-{3-[4-(2-Methoxy-phenyl)-pyrimidin-2-ylamino]-phenylmethanesulfonyl}-ethanol] | significant inhibitory effect | significant inhibitory effect; also recorded: significant inhibition |
